Experiment: xn = mol fraction of the nth substance listed
Details: 101 kPa

CCCC[n+]1ccn(C)c1.F[B-](F)(F)F + O
viscosity [mPa·s]
Details | 293.15 K | 298.15 K | 303.15 K | 313.15 K | 323.15 K | 333.15 K | 343.15 K | 353.15 K | 363.15 K | 373.15 K
x2 = 0 | 133.5 | – | 78.8 | 50.52 | 34.52 | – | 18.69 | 14.54 | 11.64 | –
x2 = 0.034 | – | 88.8 | 69.8 | 45.58 | 31.56 | 22.98 | 17.44 | 13.67 | – | 9.06
x2 = 0.0615 | – | – | – | 41.37 | – | 21.4 | 16.34 | 12.87 | – | –
x2 = 0.1135 | 81.4 | – | 51.7 | – | 25.01 | – | 14.45 | – | 9.39 | 7.83
x2 = 0.2063 | 56.3 | 45.4 | 37.2 | 26.09 | 19.17 | 14.66 | 11.59 | 9.4 | 7.79 | 6.6
x2 = 0.2802 | 42 | 34.4 | 28.7 | 20.59 | 15.49 | 12.06 | 9.64 | 7.91 | – | 5.71
x2 = 0.3977 | – | – | 19 | 14.1 | 10.89 | 8.67 | 7.11 | – | 5.16 | 4.54
